From US20110269763A1, “CRTH2 receptor ligands for medicinal uses” (7TM Pharma A/S, priority 2004, published 2011) come the findings set out here.

The target in test [1] is T1, human CRTH2 (Homo sapiens, UniProt Q9Y5Y4, V204A).
T1 sequence (Q9Y5Y4 1-395 V204A): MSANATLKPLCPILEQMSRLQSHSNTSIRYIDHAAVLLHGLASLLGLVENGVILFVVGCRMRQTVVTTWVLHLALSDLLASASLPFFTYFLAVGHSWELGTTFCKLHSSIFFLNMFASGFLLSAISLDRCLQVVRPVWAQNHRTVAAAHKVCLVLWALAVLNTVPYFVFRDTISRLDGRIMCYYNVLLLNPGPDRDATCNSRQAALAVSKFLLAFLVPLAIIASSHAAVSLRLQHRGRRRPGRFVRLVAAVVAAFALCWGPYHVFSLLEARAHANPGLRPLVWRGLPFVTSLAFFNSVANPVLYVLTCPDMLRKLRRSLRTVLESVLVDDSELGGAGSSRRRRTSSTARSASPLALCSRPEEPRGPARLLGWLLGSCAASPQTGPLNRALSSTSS
Description: Functional antagonist BRET assay on HEK293 cells stably expressing human CRTH2-Rluc and GFP2-β-arr2. It counts as cell-based. The arrangement: expressed in transfected cells. The following applies: read-out: Antag. IC50. Put shortly: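 Cells (2×10^6/mL in D-PBS with glucose) were preincubated 15 min with antagonist at 1% DMSO, then agonist and DeepBlueC were co-injected. Emission at 400 and 515 nm was read 5 s later, and the mBRET ratio (515/400 nm) was used to derive IC50 from concentration–response curves.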

The target of test [2] is T1, human CRTH2. Description: Receptor binding assay: [3H]PGD2 competition binding on whole COS-7 cells transiently transfected with CRTH2 (also stable HEK293 cells). Also on record: expressed in transfected cells; host or cells: COS-7 (transient, calcium phosphate). In a few lines: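 Whole COS-7 cells transiently transfected with human CRTH2 (calcium phosphate), or stable HEK293 cells, competed against 0.1 nM [3H]PGD2 in HBSS/10 mM HEPES with 1% DMSO, 3 h at 4 °C. Nonspecific binding with 10 μM PGD2; scintillation counting, duplicates. IC50 from curve fitting.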

The mark [3] stands for this setting: BRET, antagonist incubated 15 minutes prior to agonist.
[4] abbreviates: competition with 0.1 nM [3H]PGD2, whole cells, 3 h at 4° C.
[5] abbreviates: functional antagonist assay, Table 3.
The mark [6] stands for this setting: receptor binding assay, Table 3.

Each structure is given as a SMILES string.

Usually IC50 stands for the concentration needed to halve the response being measured. On to `CC(Oc1ccc(Br)cc1C(=O)c1cnn(-c2c(Cl)cc(Cl)cc2Cl)c1)C(=O)O` (stereo not shown) [D68, 2-{4-Bromo-2-[1-(2,4,6-trichlorophenyl)-1H-pyrazole-4-carbonyl]phenoxy}propionic acid], for which the 50% inhibitory concentration (IC50) in test [1] (setting [3]) and in test [2] (setting [4]) was less than 500 nM each time.
With `O=C(c1cnn(-c2ccccc2)c1)c1cc(Br)ccc1OCc1nn[nH]n1` [D4, [5-Bromo-2-(2H-tetrazol-5-ylmethoxy)phenyl](1-phenyl-1H-pyrazol-4-yl)ketone], the half-maximal inhibitory concentration (IC50) was greater than 5000 nM in test [1] (setting [3]) and less than 500 nM in test [2] (setting [4]).
On the same counts, the results for `CCOc1ccccc1-n1cc(C(=O)c2cc(Br)ccc2OC(C)C(=O)O)cn1` (stereo not shown) [D48, 2-{4-Bromo-2-[1-(2-ethoxyphenyl)-1H-pyrazole-4-carbonyl]phenoxy}propionic acid] are less than 500 nM and less than 500 nM.
With `O=C(O)COc1ccc(Br)cc1-c1nc(Cc2ccc(Cl)cc2Cl)no1` [D122, {4-Bromo-2-[3-(2,4-dichloro-benzyl)-[1,2,4]oxadiazol-5-yl]-phenoxy}-acetic acid], the 50% inhibitory concentration (IC50) in test [1] (setting [5]) and in test [2] (setting [6]) was less than 500 nM throughout.
Consider `O=C(O)COc1ccc(Br)cc1C(=O)c1cnn(-c2ccccc2OC(F)(F)F)c1` [D52, {4-Bromo-2-[1-(2-trifluoromethoxyphenyl)-1H-pyrazole-4-carbonyl]phenoxy}acetic acid], for which the IC50 in test [1] (setting [3]) and in test [2] (setting [4]) was less than 500 nM throughout.
For the compound `O=C(O)COc1ccc(-c2ccc(Cl)cc2)cc1C(=O)c1cnn(-c2ccccc2)c1` [D9, [4′-Chloro-3-(1-phenyl-1H-pyrazole-4-carbonyl)biphenyl-4-yloxy]acetic acid], the IC50 in test [1] (setting [3]) and in test [2] (setting [4]) was less than 500 nM each time.
Take `O=C(O)COc1ccc(Br)cc1-c1nc(Cc2c(Cl)cccc2Cl)no1` [D121, {4-Bromo-2-[3-(2,6-dichloro-benzyl)-[1,2,4]oxadiazol-5-yl]-phenoxy}-acetic acid]: the IC50 in test [1] (setting [5]) and in test [2] (setting [6]) was less than 500 nM throughout.
Turning to `Cc1cccc(C)c1-n1cc(C(=O)c2cc(Br)ccc2OC(C)C(=O)O)cn1` (stereo not shown) [D77, 2-{4-Bromo-2-[1-(2,6-dimethylphenyl)-1H-pyrazole-4-carbonyl]phenoxy}propionic acid], the IC50 in test [1] (setting [3]) and in test [2] (setting [4]) was less than 500 nM each time.
For the compound `COc1ccccc1-n1cc(C(=O)c2cc(Br)ccc2OCC(=O)O)cn1` [D60, {4-Bromo-2-[1-(2-methoxyphenyl)-1H-pyrazole-4-carbonyl]phenoxy}acetic acid], the IC50 in test [1] (setting [3]) and in test [2] (setting [4]) was less than 500 nM in each case.
With `O=C(O)COc1ccc(-c2ccccc2)cc1C(=O)c1cnn(-c2ccccc2)c1` [D5, 3-(1-Phenyl-1H-pyrazole-4-carbonyl)biphenyl-4-yloxyacetic acid], the concentration for half-maximal inhibition (IC50) in test [1] (setting [3]) and in test [2] (setting [4]) was less than 500 nM in each case.
For the compound `O=C(O)COc1ccc(Br)cc1C(=O)c1cnn(-c2ccccn2)c1` [D6, 4-Bromo-2-(1-pyridin-2-yl-1H-pyrazole-4-carbonyl)phenoxyacetic acid], the IC50 in test [1] (setting [3]) and in test [2] (setting [4]) was less than 500 nM each time.
For the compound `CC(Oc1ccc(Br)cc1C(=O)c1cnn(-c2ccc(Br)cc2Br)c1)C(=O)O` (stereo not shown) [D69, 2-{4-Bromo-2-[1-(2,4-dibromophenyl)-1H-pyrazole-4-carbonyl]phenoxy}propionic acid], the IC50 in test [1] (setting [3]) and in test [2] (setting [4]) was less than 500 nM each time.
For `COc1cccc(Cc2nc(-c3cc(Br)ccc3OCC(=O)O)co2)c1` [D89, {4-Bromo-2-[2-(3-methoxybenzyl)oxazol-4-yl]phenoxy}acetic acid], the IC50 in test [1] (setting [3]) and in test [2] (setting [4]) was less than 500 nM in each case.
As for `COc1ccc(Cc2noc(-c3cc(Br)ccc3OCC(=O)O)n2)cc1` [D118, {4-Bromo-2-[3-(4-methoxy-benzyl)-[1,2,4]oxadiazol-5-yl]-phenoxy}-acetic acid], the IC50 in test [1] (setting [5]) and in test [2] (setting [6]) was less than 500 nM in each case.
As to `O=C(O)COc1ccc(Br)cc1-c1nc(Cc2ccccc2Cl)no1` [D120, {4-Bromo-2-[3-(2-chloro-benzyl)-[1,2,4]oxadiazol-5-yl]-phenoxy}-acetic acid], the IC50 in test [1] (setting [5]) and in test [2] (setting [6]) was less than 500 nM each time.
As to `O=C(O)COc1ccc(Br)cc1C(=O)c1cnn(-c2ccccc2)c1` [D1, 4-Bromo-2-(1-phenyl-1H-pyrazole-4-carbonyl)phenoxyacetic acid], the IC50 in test [1] (setting [3]) and in test [2] (setting [4]) was less than 500 nM in each case.
`COc1ccc(-c2ccc(-c3nc(-c4cc(Br)ccc4OCC(=O)O)no3)cc2)cc1` [D134, {4-Bromo-2-[5-(4′-methoxybiphenyl-4-yl)-[1,2,4]oxadiazol-3-yl]phenoxy}acetic acid]: the IC50 in test [1] (setting [3]) and in test [2] (setting [4]) was less than 500 nM each time.
Take `O=C(O)COc1ccc(Br)cc1C(=O)c1cnn(-c2ccc(Cl)cc2Cl)c1` [D26, 4-Bromo-2-[1-(2,4-dichlorophenyl)-1H-pyrazole-4-carbonyl]phenoxyacetic acid]: the concentration for half-maximal inhibition (IC50) in test [1] (setting [3]) and in test [2] (setting [4]) was less than 500 nM throughout.
On to `O=C(O)COc1ccc(Br)cc1C(=O)c1cnn(-c2c(Cl)cccc2Cl)c1` [D29, 4-Bromo-2-[1-(2,6-dichlorophenyl)-1H-pyrazole-4-carbonyl]phenoxyacetic acid], for which the half-inhibitory concentration (IC50) in test [1] (setting [3]) and in test [2] (setting [4]) was less than 500 nM in each case.
On to `O=C(O)COc1ccc(Br)cc1C(=O)c1cnn(-c2ccc(Br)cc2Br)c1` [D33, 4-Bromo-2-[1-(2,4-dibromophenyl)-1H-pyrazole-4-carbonyl]phenoxyacetic acid], for which the IC50 in test [1] (setting [3]) and in test [2] (setting [4]) was less than 500 nM each time.
In the case of `O=C(O)COc1ccc(Br)cc1C(=O)c1cnc(-c2ccccc2)s1` [D95, [4-Bromo-2-(2-phenylthiazole-5-carbonyl)phenoxy]acetic acid], the half-inhibitory concentration (IC50) in test [1] (setting [3]) and in test [2] (setting [4]) was less than 500 nM throughout.
Consider `O=C(O)COc1ccc(Br)cc1C(=O)c1cnn(-c2cccc(Cl)c2)c1` [D15, 4-Bromo-2-[1-(3-chloro-phenyl)-1H-pyrazole-4-carbonyl]phenoxyacetic acid], for which the concentration for half-maximal inhibition (IC50) in test [1] (setting [3]) and in test [2] (setting [4]) was less than 500 nM throughout.
Consider `COc1ccc(-c2nc(-c3cc(Br)ccc3OCC(=O)O)co2)cc1` [D84, {4-Bromo-2-[2-(4-methoxyphenyl)oxazol-4-yl]phenoxy}acetic acid], for which the IC50 in test [1] (setting [3]) was 500 to 5000 nM; in test [2] (setting [4]), less than 500 nM.
